Data published in ChEMBL document CHEMBL3991601, “The target landscape of clinical kinase drugs” (Science, 2017).
Active and inactive are the calls of the source. For most assays here, no stated cut-off is given here; in the data, actives have a measured Kd and inactives only a lower limit.

How the values were obtained:
[1] = molecular target: T1, EKC/KEOPS complex subunit TP53RK (Homo sapiens, UniProt Q96S44)
T1 sequence (Q96S44 whole entry): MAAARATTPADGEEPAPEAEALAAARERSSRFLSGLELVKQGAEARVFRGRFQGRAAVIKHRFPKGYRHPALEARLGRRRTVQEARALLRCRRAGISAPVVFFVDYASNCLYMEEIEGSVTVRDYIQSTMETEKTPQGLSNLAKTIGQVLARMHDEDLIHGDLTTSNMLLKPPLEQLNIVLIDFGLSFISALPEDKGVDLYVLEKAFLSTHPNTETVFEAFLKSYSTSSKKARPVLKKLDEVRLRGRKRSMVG

[2] = molecular target: Ribosomal protein S6 kinase alpha-4 (Homo sapiens, UniProt O75676)
[3] = molecular target: Calcium/calmodulin-dependent protein kinase kinase 2 (Homo sapiens, UniProt Q96RR4)
[4] = molecular target: T2, Serine/threonine-protein kinase Nek3 (Homo sapiens, UniProt P51956)
T2 sequence (P51956 whole entry): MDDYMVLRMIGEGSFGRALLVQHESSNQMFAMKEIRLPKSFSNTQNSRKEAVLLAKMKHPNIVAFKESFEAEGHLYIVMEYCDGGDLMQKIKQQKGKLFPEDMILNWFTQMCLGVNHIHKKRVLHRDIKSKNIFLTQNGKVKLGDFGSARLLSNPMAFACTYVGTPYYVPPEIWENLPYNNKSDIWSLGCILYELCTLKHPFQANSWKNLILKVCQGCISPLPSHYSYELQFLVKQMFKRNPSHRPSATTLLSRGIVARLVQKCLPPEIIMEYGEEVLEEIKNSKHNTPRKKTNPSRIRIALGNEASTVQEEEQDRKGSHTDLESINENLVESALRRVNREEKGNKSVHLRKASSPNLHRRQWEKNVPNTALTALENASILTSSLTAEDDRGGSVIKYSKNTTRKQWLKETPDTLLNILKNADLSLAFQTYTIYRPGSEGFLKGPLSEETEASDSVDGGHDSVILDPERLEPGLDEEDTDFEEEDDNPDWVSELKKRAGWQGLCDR

ADP/ATP translocase 2 = molecular target: T3, ADP/ATP translocase 2 (Homo sapiens, UniProt P05141)
T3 sequence (P05141 whole entry): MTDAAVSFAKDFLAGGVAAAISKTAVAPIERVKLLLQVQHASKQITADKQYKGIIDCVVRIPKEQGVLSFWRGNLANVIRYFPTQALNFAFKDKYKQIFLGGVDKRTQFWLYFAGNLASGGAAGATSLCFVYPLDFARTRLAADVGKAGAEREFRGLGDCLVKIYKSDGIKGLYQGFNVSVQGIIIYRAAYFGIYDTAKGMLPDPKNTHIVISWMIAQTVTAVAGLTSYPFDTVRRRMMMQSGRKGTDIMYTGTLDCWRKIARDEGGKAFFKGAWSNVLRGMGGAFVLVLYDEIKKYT

Ephrin type-A receptor 4 = Ephrin type-A receptor 4 (Homo sapiens, UniProt P54764)
[5] = molecular target: T4, Non-receptor tyrosine-protein kinase TNK1 (Homo sapiens, UniProt Q13470)
T4 sequence (Q13470 whole entry): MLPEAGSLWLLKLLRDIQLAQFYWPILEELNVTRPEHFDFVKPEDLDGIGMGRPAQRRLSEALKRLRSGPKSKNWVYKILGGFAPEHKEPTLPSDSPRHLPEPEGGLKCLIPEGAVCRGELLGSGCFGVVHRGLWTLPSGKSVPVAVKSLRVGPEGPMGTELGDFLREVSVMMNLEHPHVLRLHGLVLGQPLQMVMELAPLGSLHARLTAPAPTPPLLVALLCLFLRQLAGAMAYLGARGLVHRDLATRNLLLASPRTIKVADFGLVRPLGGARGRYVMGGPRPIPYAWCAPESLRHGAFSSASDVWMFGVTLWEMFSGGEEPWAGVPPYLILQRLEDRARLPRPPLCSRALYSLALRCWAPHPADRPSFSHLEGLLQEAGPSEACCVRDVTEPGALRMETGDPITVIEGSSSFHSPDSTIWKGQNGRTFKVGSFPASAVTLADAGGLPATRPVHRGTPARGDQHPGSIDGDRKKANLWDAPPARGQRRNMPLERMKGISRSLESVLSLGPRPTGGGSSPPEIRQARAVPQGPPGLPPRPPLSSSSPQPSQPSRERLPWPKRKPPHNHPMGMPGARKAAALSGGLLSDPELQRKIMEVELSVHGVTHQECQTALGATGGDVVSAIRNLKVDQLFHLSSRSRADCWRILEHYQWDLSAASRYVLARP

[6] = molecular target: Ribosomal protein S6 kinase alpha-1 (Homo sapiens, UniProt Q15418)
[7] = molecular target: Non-receptor tyrosine-protein kinase TYK2 (Homo sapiens, UniProt P29597)
[8] = molecular target: STE20-like serine/threonine-protein kinase (Homo sapiens, UniProt Q9H2G2)
[9] = molecular target: Mitogen-activated protein kinase 7 (Homo sapiens, UniProt Q13164)
[10] = molecular target: T5, Adenine phosphoribosyltransferase (Homo sapiens, UniProt P07741)
T5 sequence (P07741 whole entry): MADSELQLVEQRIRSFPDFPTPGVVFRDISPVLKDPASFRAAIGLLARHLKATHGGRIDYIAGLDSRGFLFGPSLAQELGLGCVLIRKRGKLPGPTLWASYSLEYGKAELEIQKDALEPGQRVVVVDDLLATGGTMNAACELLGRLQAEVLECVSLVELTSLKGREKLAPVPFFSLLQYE

[11] = molecular target: Tyrosine-protein kinase Fyn (Homo sapiens, UniProt P06241)
[12] = molecular target: Ribosomal protein S6 kinase beta-1 (Homo sapiens, UniProt P23443)
[13] = molecular target: Mitogen-activated protein kinase kinase kinase kinase 5 (Homo sapiens, UniProt Q9Y4K4)
Aurora kinase B = Aurora kinase B (Homo sapiens, UniProt Q96GD4)

Ephrin type-A receptor 4, sequence (P54764 whole entry): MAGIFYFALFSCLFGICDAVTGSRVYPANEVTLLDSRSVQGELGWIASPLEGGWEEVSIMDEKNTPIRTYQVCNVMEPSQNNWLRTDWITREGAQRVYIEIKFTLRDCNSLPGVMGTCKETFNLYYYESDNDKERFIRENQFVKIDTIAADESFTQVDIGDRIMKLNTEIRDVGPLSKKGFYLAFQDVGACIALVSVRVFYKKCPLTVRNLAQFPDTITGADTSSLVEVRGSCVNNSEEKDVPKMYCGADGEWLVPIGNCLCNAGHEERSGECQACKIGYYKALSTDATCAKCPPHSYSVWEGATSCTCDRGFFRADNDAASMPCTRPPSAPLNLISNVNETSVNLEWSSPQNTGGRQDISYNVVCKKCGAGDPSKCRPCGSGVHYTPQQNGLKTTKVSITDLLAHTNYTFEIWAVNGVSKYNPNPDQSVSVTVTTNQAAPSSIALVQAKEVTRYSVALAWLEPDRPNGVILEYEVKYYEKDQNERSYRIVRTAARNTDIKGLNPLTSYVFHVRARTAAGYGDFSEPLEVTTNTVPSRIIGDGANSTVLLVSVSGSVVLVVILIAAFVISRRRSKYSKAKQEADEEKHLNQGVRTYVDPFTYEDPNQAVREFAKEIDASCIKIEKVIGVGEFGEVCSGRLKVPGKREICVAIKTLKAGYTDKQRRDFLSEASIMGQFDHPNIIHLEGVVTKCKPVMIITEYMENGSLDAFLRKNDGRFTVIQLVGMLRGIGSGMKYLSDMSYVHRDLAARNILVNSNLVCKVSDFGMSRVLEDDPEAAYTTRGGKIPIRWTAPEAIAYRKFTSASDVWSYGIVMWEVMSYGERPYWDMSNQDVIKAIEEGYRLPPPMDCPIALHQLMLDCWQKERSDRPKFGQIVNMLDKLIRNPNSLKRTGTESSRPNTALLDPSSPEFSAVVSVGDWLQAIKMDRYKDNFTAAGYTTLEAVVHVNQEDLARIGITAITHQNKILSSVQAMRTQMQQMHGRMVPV
Ribosomal protein S6 kinase beta-1, sequence (P23443 whole entry): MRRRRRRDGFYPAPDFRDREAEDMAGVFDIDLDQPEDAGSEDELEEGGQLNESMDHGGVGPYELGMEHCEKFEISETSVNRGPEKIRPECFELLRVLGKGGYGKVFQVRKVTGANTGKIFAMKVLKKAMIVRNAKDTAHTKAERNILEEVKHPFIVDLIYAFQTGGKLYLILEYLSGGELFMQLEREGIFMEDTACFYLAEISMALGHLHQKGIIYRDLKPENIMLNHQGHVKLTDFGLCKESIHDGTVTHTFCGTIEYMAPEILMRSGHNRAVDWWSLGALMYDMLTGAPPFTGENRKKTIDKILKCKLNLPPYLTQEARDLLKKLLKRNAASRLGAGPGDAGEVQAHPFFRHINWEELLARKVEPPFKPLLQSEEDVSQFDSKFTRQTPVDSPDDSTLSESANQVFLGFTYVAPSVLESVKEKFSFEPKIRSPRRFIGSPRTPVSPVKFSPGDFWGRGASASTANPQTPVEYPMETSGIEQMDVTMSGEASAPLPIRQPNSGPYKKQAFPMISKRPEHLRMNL
Tyrosine-protein kinase Fyn, sequence (P06241 whole entry): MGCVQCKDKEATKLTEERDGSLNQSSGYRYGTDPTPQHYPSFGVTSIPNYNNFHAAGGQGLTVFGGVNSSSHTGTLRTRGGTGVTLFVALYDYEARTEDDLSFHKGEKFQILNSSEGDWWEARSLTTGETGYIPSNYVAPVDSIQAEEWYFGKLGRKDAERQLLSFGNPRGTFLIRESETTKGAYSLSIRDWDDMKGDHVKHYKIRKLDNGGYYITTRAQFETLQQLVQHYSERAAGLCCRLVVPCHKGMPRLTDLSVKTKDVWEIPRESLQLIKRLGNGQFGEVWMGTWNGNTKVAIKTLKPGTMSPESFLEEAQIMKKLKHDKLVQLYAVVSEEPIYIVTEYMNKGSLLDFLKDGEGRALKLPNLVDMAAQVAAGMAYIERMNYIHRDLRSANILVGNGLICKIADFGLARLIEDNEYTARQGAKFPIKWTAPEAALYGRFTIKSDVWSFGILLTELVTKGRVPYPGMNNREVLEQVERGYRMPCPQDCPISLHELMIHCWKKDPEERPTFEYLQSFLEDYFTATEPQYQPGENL
Calcium/calmodulin-dependent protein kinase kinase 2, sequence (Q96RR4 whole entry): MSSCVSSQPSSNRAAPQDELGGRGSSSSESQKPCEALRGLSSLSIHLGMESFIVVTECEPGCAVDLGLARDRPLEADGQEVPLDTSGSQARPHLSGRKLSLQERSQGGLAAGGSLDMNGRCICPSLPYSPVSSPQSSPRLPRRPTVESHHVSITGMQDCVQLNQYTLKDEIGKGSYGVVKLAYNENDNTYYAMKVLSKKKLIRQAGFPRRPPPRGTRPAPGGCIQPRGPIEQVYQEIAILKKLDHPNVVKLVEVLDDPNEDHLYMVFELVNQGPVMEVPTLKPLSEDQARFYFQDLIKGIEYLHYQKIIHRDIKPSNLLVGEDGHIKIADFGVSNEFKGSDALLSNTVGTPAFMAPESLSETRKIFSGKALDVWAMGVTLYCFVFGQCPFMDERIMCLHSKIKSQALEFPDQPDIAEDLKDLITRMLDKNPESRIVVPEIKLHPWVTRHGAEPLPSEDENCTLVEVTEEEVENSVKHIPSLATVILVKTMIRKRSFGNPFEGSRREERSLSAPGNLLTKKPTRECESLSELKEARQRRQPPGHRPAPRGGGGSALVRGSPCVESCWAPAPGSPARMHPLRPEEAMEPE
Ribosomal protein S6 kinase alpha-4, sequence (O75676 whole entry): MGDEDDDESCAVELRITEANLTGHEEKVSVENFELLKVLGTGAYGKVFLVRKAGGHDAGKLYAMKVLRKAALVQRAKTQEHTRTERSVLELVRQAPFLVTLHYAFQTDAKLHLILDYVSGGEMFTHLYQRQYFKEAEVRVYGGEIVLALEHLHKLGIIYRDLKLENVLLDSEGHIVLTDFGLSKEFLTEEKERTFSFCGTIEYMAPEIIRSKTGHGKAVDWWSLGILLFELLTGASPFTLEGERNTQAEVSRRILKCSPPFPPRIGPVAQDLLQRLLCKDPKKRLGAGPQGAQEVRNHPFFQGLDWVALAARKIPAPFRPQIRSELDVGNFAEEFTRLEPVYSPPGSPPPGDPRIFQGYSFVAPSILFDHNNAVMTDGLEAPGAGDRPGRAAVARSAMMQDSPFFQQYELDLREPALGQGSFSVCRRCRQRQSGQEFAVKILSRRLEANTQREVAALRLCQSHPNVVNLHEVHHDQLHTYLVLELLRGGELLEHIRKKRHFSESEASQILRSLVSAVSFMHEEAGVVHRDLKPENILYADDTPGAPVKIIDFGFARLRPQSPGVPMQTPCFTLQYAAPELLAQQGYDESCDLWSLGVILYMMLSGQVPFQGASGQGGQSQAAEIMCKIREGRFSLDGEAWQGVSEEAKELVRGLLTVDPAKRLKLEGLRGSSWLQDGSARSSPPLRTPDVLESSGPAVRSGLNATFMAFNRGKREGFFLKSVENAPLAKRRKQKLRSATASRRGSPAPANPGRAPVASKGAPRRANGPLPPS
Mitogen-activated protein kinase kinase kinase kinase 5, sequence (Q9Y4K4 whole entry): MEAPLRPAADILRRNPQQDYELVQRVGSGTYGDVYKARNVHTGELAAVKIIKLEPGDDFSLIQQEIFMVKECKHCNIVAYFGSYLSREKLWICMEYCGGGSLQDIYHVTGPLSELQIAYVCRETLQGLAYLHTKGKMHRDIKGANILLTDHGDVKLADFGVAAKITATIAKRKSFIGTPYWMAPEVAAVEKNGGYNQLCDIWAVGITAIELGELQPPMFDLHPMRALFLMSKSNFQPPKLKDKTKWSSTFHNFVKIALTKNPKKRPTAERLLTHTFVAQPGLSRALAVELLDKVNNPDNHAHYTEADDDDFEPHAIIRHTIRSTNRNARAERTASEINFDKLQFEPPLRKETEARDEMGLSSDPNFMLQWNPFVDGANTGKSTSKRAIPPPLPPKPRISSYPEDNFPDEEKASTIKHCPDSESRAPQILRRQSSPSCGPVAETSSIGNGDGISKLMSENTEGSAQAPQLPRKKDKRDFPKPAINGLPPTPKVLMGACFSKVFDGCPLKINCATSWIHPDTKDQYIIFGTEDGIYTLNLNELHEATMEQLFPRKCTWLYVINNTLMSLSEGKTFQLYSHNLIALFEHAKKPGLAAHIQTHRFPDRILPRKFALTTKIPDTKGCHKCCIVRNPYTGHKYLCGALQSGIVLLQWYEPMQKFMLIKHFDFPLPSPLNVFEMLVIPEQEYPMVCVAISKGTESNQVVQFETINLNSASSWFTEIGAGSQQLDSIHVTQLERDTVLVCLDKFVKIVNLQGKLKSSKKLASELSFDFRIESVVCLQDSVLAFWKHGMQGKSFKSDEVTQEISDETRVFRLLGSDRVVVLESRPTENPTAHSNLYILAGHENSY
Mitogen-activated protein kinase 7, sequence (Q13164 whole entry): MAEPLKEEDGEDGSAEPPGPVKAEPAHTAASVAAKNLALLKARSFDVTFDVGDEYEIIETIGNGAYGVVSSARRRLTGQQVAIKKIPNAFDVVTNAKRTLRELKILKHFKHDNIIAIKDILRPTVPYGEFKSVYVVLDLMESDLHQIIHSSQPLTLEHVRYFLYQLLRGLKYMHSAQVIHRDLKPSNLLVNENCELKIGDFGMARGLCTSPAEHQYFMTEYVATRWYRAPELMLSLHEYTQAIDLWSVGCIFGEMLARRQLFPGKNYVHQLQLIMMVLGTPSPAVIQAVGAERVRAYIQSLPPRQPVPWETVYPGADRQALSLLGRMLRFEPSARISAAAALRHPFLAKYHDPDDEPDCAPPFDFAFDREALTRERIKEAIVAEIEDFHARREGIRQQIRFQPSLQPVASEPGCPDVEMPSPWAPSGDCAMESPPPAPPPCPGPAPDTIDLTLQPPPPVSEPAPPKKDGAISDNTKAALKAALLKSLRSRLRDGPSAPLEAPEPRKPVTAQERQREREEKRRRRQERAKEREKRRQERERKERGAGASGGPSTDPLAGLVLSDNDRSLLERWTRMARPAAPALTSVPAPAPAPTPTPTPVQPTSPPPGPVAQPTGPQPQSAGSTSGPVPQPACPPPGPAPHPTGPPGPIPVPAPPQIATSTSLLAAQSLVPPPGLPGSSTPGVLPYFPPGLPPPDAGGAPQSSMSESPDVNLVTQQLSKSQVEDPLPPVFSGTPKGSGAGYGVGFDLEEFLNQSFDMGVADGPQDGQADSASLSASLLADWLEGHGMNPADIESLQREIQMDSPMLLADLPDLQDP

Structure (SMILES)	Kd [1]	Kd [2]	Kd [3]	Kd [4]	Kd (ADP/ATP translocase 2)	Kd (Ephrin type-A receptor 4)	Kd [5]	Kd [6]	Kd [7]	Kd [8]	Kd [9]	Kd [10]	Kd [11]	Kd [12]	Kd [13]	Kd (Aurora kinase B)
Cc1cc(Nc2nc(N[C@@H](C)c3ncc(F)cn3)ncc2Cl)n[nH]1 [AZD-1480]	> 30 µM (inactive)	> 30 µM (inactive)	> 30 µM (inactive)	> 30 µM (inactive)	> 30 µM (inactive)	> 30 µM (inactive)	1.26 µM (active)	> 30 µM (inactive)	> 30 µM (inactive)	0.686 µM (active)	> 30 µM (inactive)	> 30 µM (inactive)	> 30 µM (inactive)	> 30 µM (inactive)	> 30 µM (inactive)	1.56 µM (active)
CCc1cc2c(cc1N1CCC(N3CCOCC3)CC1)C(C)(C)c1[nH]c3cc(C#N)ccc3c1C2=O [ALECTINIB]	> 30 µM (inactive)	> 30 µM (inactive)	35.6 µM (active)	> 30 µM (inactive)	> 30 µM (inactive)	> 30 µM (inactive)	> 30 µM (inactive)	> 30 µM (inactive)	> 30 µM (inactive)	> 30 µM (inactive)	> 30 µM (inactive)	> 30 µM (inactive)	> 30 µM (inactive)	> 30 µM (inactive)	> 30 µM (inactive)	> 30 µM (inactive)
CNC(=O)c1cccc(-c2ccc3c(N4CCOC[C@@H]4C)nc(N4CCOC[C@@H]4C)nc3n2)c1 [VISTUSERTIB]	> 30 µM (inactive)	> 30 µM (inactive)	> 30 µM (inactive)	> 30 µM (inactive)	> 30 µM (inactive)	> 30 µM (inactive)	> 30 µM (inactive)	> 30 µM (inactive)	> 30 µM (inactive)	> 30 µM (inactive)	> 30 µM (inactive)	> 30 µM (inactive)	> 30 µM (inactive)	> 30 µM (inactive)	> 30 µM (inactive)	> 30 µM (inactive)
Cn1c(=O)c(F)c(Nc2ccc(I)cc2F)c2c(=O)n(C[C@@H](O)CO)cnc21 [TAK-733]	> 30 µM (inactive)	> 30 µM (inactive)	> 30 µM (inactive)	> 30 µM (inactive)	> 30 µM (inactive)	> 30 µM (inactive)	> 30 µM (inactive)	> 30 µM (inactive)	> 30 µM (inactive)	> 30 µM (inactive)	> 30 µM (inactive)	> 30 µM (inactive)	> 30 µM (inactive)	> 30 µM (inactive)	> 30 µM (inactive)	> 30 µM (inactive)
O=C(NOC[C@H](O)CO)c1ccc(F)c(F)c1Nc1ccc(I)cc1F [MIRDAMETINIB]	> 30 µM (inactive)	> 30 µM (inactive)	> 30 µM (inactive)	> 30 µM (inactive)	> 30 µM (inactive)	> 30 µM (inactive)	> 30 µM (inactive)	> 30 µM (inactive)	> 30 µM (inactive)	> 30 µM (inactive)	> 30 µM (inactive)	> 30 µM (inactive)	> 30 µM (inactive)	> 30 µM (inactive)	> 30 µM (inactive)	> 30 µM (inactive)
Cc1c(NC(=O)OC[C@@H]2COCCN2)cn2ncnc(Nc3ccc4c(cnn4Cc4cccc(F)c4)c3)c12 [AC-480]	> 30 µM (inactive)	> 30 µM (inactive)	> 30 µM (inactive)	> 30 µM (inactive)	> 30 µM (inactive)	> 30 µM (inactive)	> 30 µM (inactive)	> 30 µM (inactive)	> 30 µM (inactive)	> 30 µM (inactive)	> 30 µM (inactive)	> 30 µM (inactive)	> 30 µM (inactive)	> 30 µM (inactive)	> 30 µM (inactive)	> 30 µM (inactive)
